# Laboratory results taken from US10966995B2, “Use of secoisolariciresinol diglucosides (SDGS) and related compounds for protection against radiation and chemical damage” (THE TRUSTEES OF THE UNIVERSITY OF PENNSYLVANIA, priority 2014, dated 2021).
# Key:
# Plasmid DNA (pBR322) = experiment: Plasmid DNA relaxation assay after γ-radiation; format: biochemical; details: for EC50: 25 Gy γ radiation, 25-250 μM tested, read-out: EC50 (effective concentration needed to prevent 50% of plasmid relaxation); for SC and OC forms of plasmid DNA: 25 Gy, 25, 50, 100 and 250 μM
# Procedure: (§1) Plasmid DNA (pBR322) or calf thymus DNA samples with or without varying concentrations of SDG (R,R), SDG (S,S) and SDG (commercial) were exposed to γ-radiation with a Mark 1 cesium (Cs-137) irradiator (J. L. Shepherd, San Fernando, Calif.) at a dose rate of 1.7 Gy/min in phosphate buffered saline, pH 7.4 (PBS).
# The effect of test compounds on radiation-induced strand breaks and supercoil (SC) to open coil (OC) conversion was determined using plasmid DNA (pBR322) (Life Technologies, Carlsbad, Calif.). Plasmid DNA (500 ng) in PBS (pH 7.4) was mixed with various concentrations (25-250 μM) of SDG (R,R), SDG (S,S) and SDG (commercial) and irradiated at 25 Gy in PBS. At 30 min post radiation exposure, samples were mixed with loading dye and subjected to agarose (1%) gel electrophoresis in TAE buffer (pH, 8.3) at 100 V. The gel was stained with ethidium bromide (0.5 μg/ml) for 40 min, washed for 20 min and then visualized on a UV trans-illuminator (Bio-Rad, Hercules, Calif.). The captured gel images were scanned and the density of the open coiled (OC) and super coiled (SC) plasmid DNA bands determined by Gel-doc image analyzer program. The density of the SC and OC plasmid DNA was expressed as % of the total density (OC+SC).
# calf thymus DNA [1] = experiment: Radiation-induced calf thymus DNA fragmentation assay; format: biochemical; details: for Radioprotection in calf thymus DNA fragmentation assay at low concentrations / High mol. wt. DNA form after radiation exposure / Radioprotective properties of SDG and metabolites compared: 50 Gy; for Radioprotection in calf thymus DNA fragmentation assay at low concentrations: 0.5-10 μM; for High mol. wt. DNA form after radiation exposure: 25, 50, 100 and 250 μM; for Radiation-induced generation of low mol. wt. fragments: at the concentration of 5 (unit not given); for Radiation induced generation of low mol. wt. fragments: at the lowest concentration tested; for Radioprotective properties of SDG and metabolites compared: 10 μM of each agent
# Procedure: as §1
# The effect of test compounds on radiation-induced strand breaks in DNA was determined using calf thymus DNA (Sigma, St. Louis, Mo.). DNA (500 ng) in PBS (pH 7.4) was mixed with varying concentrations (25-250 μM) of SDG (R,R), SDG (S,S) and SDG (commercial) and irradiated at 50 Gy for 30 min. A second series of experiments were performed at varying concentrations ranging from 0.5-10 μM. Samples were mixed with loading dye and subjected to agarose (1%) gel electrophoresis in TAE buffer (pH, 8.3) at 100 V. The gel was stained with ethidium bromide (0.5 μg/ml) for 40 min, washed for 20 min and then visualized on a UV trans-illuminator (Bio-Rad, Hercules, Calif.). The captured gel images were scanned and the density of the calf thymus DNA fragments was determined by Gel-Pro image analyzer program (Media Cybernetics, Silver Spring, Md.). The density of the low mol. wt (<6,000 bps) and the high mol. wt (>6,000 bps) fragments of calf thymus DNA was expressed as % of the total density (low mol wt.+high mol. wt.).
# [2] = Hypochlorite scavenging with APF/HPF fluorescent probes (sodium hypochlorite); details: 0.5 μM; similar to silibinin
# Procedure: The fluorescence of ROS probes APF and HPF in PBS was measured at excitation/emission at 490 nm/515 nm in presence of hypochlorite or after γ-radiation exposure. Data is expressed as relative fluorescence units (RFU).
# human epithelial cells = experiment: BaP-induced DNA adduct formation; format: cell-based; details: given alone or in combination
# Excerpt: Similarly, SDG prevents genotoxic stress in human epithelial cells exposed to BaP. Exposure of cells to a potent carcinogen such as BaP, induces genotoxic stress as indicated by increased levels of p53 protein (FIG. 25). […] SDG also prevents oxidative DNA damages in human epithelial cells exposed to BaP. Exposure of cells to a potent carcinogen such as BaP, induces oxidative DNA damage as indicated by increased levels of gamma-H2AX, a marker for double-stranded DNA breaks (FIG. 26). […] Furthermore, SDG prevents DNA adduct formation in human epithelial cells exposed to BaP. Exposure of cells to a potent carcinogen such as BaP, induces the formation of DNA adducts (FIG. 27). DNA adducts are pieces of DNA covalently linked to a carcinogen and is directly linked to the development of malignancy. The DNA adduct levels is decreased by the presence of SDG or its metabolites ED and EL given alone or in combination.
# calf thymus DNA [3] = experiment: Hypochlorite-induced damage to calf thymus DNA; format: biochemical; details: 0.5 mM hypochlorite; test agents 1.0 μM
# Procedure: Calf thymus or plasmid DNA was incubated with hypochlorite for 2 hrs at 37° C. DNA samples were subjected to agarose (1%) gel electrophoresis and analyzed.
Structure (SMILES),EC50 (Plasmid DNA (pBR322)),High mol. wt. DNA form after radiation exposure (calf thymus DNA [1]),ClO^− scavenging potency [2],Radioprotective properties of SDG and metabolites compared (calf thymus DNA [1]),further results
"COc1cc(C[C@@H](CO[C@@H]2O[C@H](CO)[C@@H](O)[C@H](O)[C@H]2O)[C@H](CO[C@@H]2O[C@H](CO)[C@@H](O)[C@H](O)[C@H]2O)Cc2ccc(O)c(OC)c2)ccc1O [SDG (R,R), secoisolariciresinol diglucoside]",128 µM,radioprotective properties,comparable potency,–,SC and OC forms of plasmid DNA (Plasmid DNA (pBR322)): prevented the radiation-induced damage to plasmid DNA in a concentration-dependent manner; Radioprotection in calf thymus DNA fragmentation assay at low concentrations (calf thymus DNA [1]): strong radioprotection characteristics even at low concentrations; Radiation-induced generation of low mol. wt. fragments (calf thymus DNA [1]): completely prevented; Radiation induced generation of low mol. wt. fragments (calf thymus DNA [1]): completely prevented
"COc1cc(C[C@@H](CO[C@@H]2O[C@H](CO)[C@@H](O)[C@H](O)[C@H]2O)[C@H](CO[C@@H]2O[C@H](CO)[C@@H](O)[C@H](O)[C@H]2O)Cc2ccc(O)c(OC)c2)ccc1O [SDG (commercial), Secoisolariciresinol Diglucoside]",98.4 µM,radioprotective properties,comparable potency,–,–
"COc1cc(C[C@H](CO[C@@H]2O[C@H](CO)[C@@H](O)[C@H](O)[C@H]2O)[C@@H](CO[C@@H]2O[C@H](CO)[C@@H](O)[C@H](O)[C@H]2O)Cc2ccc(O)c(OC)c2)ccc1O [SDG (S,S), secoisolariciresinol diglucoside]",142 µM,the proportion of the high mol. wt. DNA form increased significantly,comparable potency,–,SC and OC forms of plasmid DNA (Plasmid DNA (pBR322)): the proportion of the SC form increased and the density of OC form decreased significantly; Radioprotection in calf thymus DNA fragmentation assay at low concentrations (calf thymus DNA [1]): strong radioprotection characteristics even at low concentrations; Radiation-induced generation of low mol. wt. fragments (calf thymus DNA [1]): completely prevented; Radiation induced generation of low mol. wt. fragments (calf thymus DNA [1]): completely prevented
"OC[C@H](Cc1cccc(O)c1)[C@H](CO)Cc1cccc(O)c1 [ED, enterodiol]",–,–,–,equipotent,DNA adduct levels (human epithelial cells): decreased
"O=C1OC[C@H](Cc2cccc(O)c2)[C@H]1Cc1cccc(O)c1 [EL, enterolactone]",–,–,–,equipotent,DNA adduct levels (human epithelial cells): decreased
O=c1c(O)c(-c2ccc(O)c(O)c2)oc2cc(O)cc(O)c12 [quercetin],–,–,–,–,Hypochlorite-induced damage to genomic DNA (calf thymus DNA [3]): comparable
"COc1cc(CC(CO)C(CO)Cc2ccc(O)c(OC)c2)ccc1O (centres unmarked) [SECO, 2,3-bis (3-methoxy-4-hydroxybenzyl) butane-1,4-diol]",–,–,–,equipotent,–
